# Read-outs that look alike come from different tables or passages of the source.
# Columns and labels:
# Brown Dog Tick = test: Laboratory chamber test of PHPG, knockdown and mortality; type: in vivo; details: PHPG 0.6 ppm
# Method: (§1) The effects of Purified Hydrogen Peroxide Gas (PHPG) on selected arthropod species is performed to determine the efficacy on controlling an arthropod using the indirect dispersion of PHPG in a space. In these experiments, the knockdown and mortality rates in mosquitoes, bed bugs, termites, ants, moths, house flies, and spiders is assessed.
# (§2) Black wood ants, house flies (adult and pupae), large saturniid moths, termites (soldier and living), and cellar spiders are obtained from Carolina Supplies and shipped overnight. All organisms are fed prior to shipping from Carolina Supplies. Bed bugs and mosquitoes are sourced locally due to government shipping restrictions. The test samples are stored in a cabinet at ambient temperature and humidity until use in the study. The samples are labeled and color-coded for easy identification. In certain experiments, specimens of wild caught arthropods are used in the controlled experiments, including for example Brazilian cockroaches.
# (§3) All testing is conducted in a sealed, Static Dissipative PVC chamber, Terra Universal (Fullerton, CA) Model 3305-10F: 59 inches W×24 inches D×25 inches H. With additional airlock Terra Universal Model 1680-81B 11.5 inches W×10 inches D×10.5 inches 1-1. Arthropods are placed inside transfer containers (pint size paper containers). The top and bottom diameters of these containers are 3.75 and 2.87 inches respectively with a height of 3.5 inches. All arthropods are released once the airlock is sealed. Arthropods are allowed to recover following PHPG exposure and observed in 8 oz glass Pyrex@(Tewksbury, MA) containers with sealed glass lids.
# Three replicates of ten of each arthropod are subjected to PHPG. […] If at 24 hours mortality is less 90%, additional readings are taken following 48 hours of PHPG exposure. […] Time frames are recorded for each replicate. […]
# If all ten arthropods are recorded as knocked down or deceased during any observation before 15 minutes have elapsed, subsequent observations are not made. […] All dead arthropods are confirmed by probing or agitation to make sure that they are unable to move (any that show movement visible to the naked eye are recorded as moribund). Arthropods that can crawl or right themselves when placed on their backs are recorded as being alive.
# (§4) After the knockdown counts are complete, the arthropods are maintained in the laboratory at ambient temperature and humidity conditions with a normal 8:16 light:dark cycle for 24 hours. Additional mortality readings are taken at 48 hours if less than 90% mortality is recorded at 24 hours. A 48 hour reading depends upon control mortality remaining less than 10%. Temperature and humidity are recorded in the treatment area, and in the laboratory where the arthropods are subsequently held for the duration of the test.
# Bedbugs = details: PHPG 0.6 ppm
# Method: as §1, §2, §3
# (§5) Three replicates of ten of each arthropod are subjected to PHPG. An additional three replicates are subjected to a non PHPG producing device and serve as untreated controls. The arthropods are observed for knockdown at 0.5, 1, 2, 3, 4, 5, and 15 minutes. Mortality counts are taken after 24 hours of PHPG exposure. If at 24 hours mortality is less 90%, additional readings are taken following 48 hours of PHPG exposure. The test samples are exposed to the test environment containing PHPG until a 90% knockdown is achieved. The test samples are provided PHPG emitted from a PHPG producing device in the center of the test chamber. Time frames are recorded for each replicate. Just prior to treatment the arthropods are transferred into the transfer containers. Forty eight hours after treatment, they are removed from the treatment chamber and transferred to recovery containers and covered with screened lids for observation.
# (§6) Knockdown occurs when an arthropod cannot right itself when placed on its back but is still able to move at least one body part. The arthropods are then transferred from the treatment chamber to recovery containers. Another knockdown/mortality observation is made 15 minutes later.
# (§7) If all ten arthropods are recorded as knocked down or deceased during any observation before 15 minutes have elapsed, subsequent observations are not made. Mortality counts are made at 24 hours, and 48 hours or sooner (if applicable). All dead arthropods are confirmed by probing or agitation to make sure that they are unable to move (any that show movement visible to the naked eye are recorded as moribund). Arthropods that can crawl or right themselves when placed on their backs are recorded as being alive.
# as §4
# Carpenter Ants = details: PHPG 1.0 ppm
# Method: as §1, §2, §3, §5, §6, §7, §4
# Cellar Spiders = details: PHPG 1.0 ppm
# Method: as §1, §2, §3, §5, §6, §7, §4
# Cockroaches = test system: Cockroaches
# Method: as §1, §2, §3, §5, §6, §7, §4
# Deer Ticks = details: PHPG 0.6 ppm
# Method: as §1, §2, §3, §5, §6, §7, §4
# Fruit Flies = details: PHPG 0.3 ppm, exposure 72 hours
# Method: as §1, §2, §3, §5, §6, §7, §4
# House Fly Pupae = details: PHPG 0.5 ppm
# Method: as §1, §2, §3, §5, §6, §7, §4
# Tarantula = test system: Tarantula
# Method: as §1, §2, §3, §5, §6, §7, §4
# Termites = test system: Termites
# Method: as §1, §2, §3, §5, §6, §7, §4
# Wolf Spiders = details: PHPG 1.0 ppm
# Method: as §1, §2, §3, §5, §6, §7, §4
# Crickets = details: PHPG 0.4 ppm
# House Flies = details: PHPG 0.2 ppm
# Mosquitoes = details: PHPG 0.2 ppm
# Stink Bugs = details: PHPG 0.3 ppm
# Yellow Jackets and Nest = details: PHPG 0.3 ppm
# [1] = test system: arthropods including crickets, ants, spiders, and house flies; test: Real world test of PHPG in 1400 sq ft Pool House; details: after 27 hours
# From the text: All PHPG concentration readings take place with Draeger products. A Pac III, Polytron 7000 or Draeger Tubes are utilized in all tests, generally according to manufacturer's instructions. […] Most commonly, Draeger Tubes are used after clipping on both ends and placement in a ACCURO™ Pump. Per manufacturer instructions, the tubes are pumped 100 times and the level of PHPG determined by observing the color change in the crystals.
# Two PHPG generating devices were placed in the space for an initial cleansing and to establish levels.
compound,measurement,setting,value
"OO [PHPG, Purified Hydrogen Peroxide Gas]",Attempt to Flee?,Brown Dog Tick,Yes
same,Percent Killed,Brown Dog Tick; exposure 3 hours,70%
same,Percent Killed,Brown Dog Tick; exposure 60 hours,100%
same,Observations,Brown Dog Tick; until they succumbed,All ticks searched for an exit
same,Observations: nymphs,Bedbugs; Bedbug nymphs hatched from immature eggs,Nymphs died in seconds.
same,Observations: all bedbugs reacted within,Bedbugs; Bedbugs,fifteen seconds.
same,Observations: final outcome,Bedbugs; Bedbugs,All died over time.
same,Percent Killed,"Bedbugs; Bedbugs, exposure 3 hours",50%
same,Percent Killed,"Bedbugs; Bedbugs, exposure 60 hours",100%
same,Attempt to Flee?,"Bedbugs; Bedbugs, cell continues 'Went Dormant'","No,"
same,Attempt to Flee?,Carpenter Ants,Yes
same,Observations: order of death,Carpenter Ants,exit. Smallest ants died first.
same,Percent Killed,Carpenter Ants; exposure 24 Hours,15%
same,Observations: ants collected in areas where fresh air was seeping into the chamber and remained inactive,Carpenter Ants; when unable to flee,When unable 50% collected
same,Attempt to Flee?,Cellar Spiders,Yes
same,Observations: smallest spiders died within,Cellar Spiders,one hour. Larger spiders
same,Percent Killed,Cellar Spiders; exposure 24 Hours,33%
same,Attempt to Flee?,"Cockroaches; Cockroaches, PHPG 0.6 ppm",No
same,Percent Killed,"Cockroaches; Cockroaches, PHPG 0.6 ppm, exposure 24 Hours",0%
same,Observations,"Cockroaches; Cockroaches, low level of PHPG (0.6 ppm), did not react to the gas",Appeared resistant at low
same,Resistance to PHPG,"Cockroaches; adult cockroaches, PHPG levels up to 0.6 ppm for 24 hours",resistant
same,Attempt to Flee?,Deer Ticks,Yes
same,Percent Killed,Deer Ticks; exposure 3 hours,70%
same,Percent Killed,Deer Ticks; exposure 60 hours,100%
same,Observations,Deer Ticks; until they succumbed,All ticks searched for an exit
same,Percent Killed,Fruit Flies,100%
same,Observations: hatching,"House Fly Pupae; 100 pupae expected to hatch within 3 days, within one week",within 3 days. Did not hatch
same,Percent Killed,"House Fly Pupae; House Fly Pupae, exposure 7 days",100%
same,Attempt to Flee?,"Tarantula; Tarantula, PHPG 0.6 ppm",No
same,Percent Killed,"Tarantula; Tarantula, PHPG 0.6 ppm, exposure 24 hours",0%
same,Observations,"Tarantula; Tarantula, PHPG 0.6 ppm, did not react to the gas",Appeared resistant. Did not
same,Resistance to PHPG,"Tarantula; tarantula spiders, PHPG levels up to 0.6 ppm for 24 hours",resistant
same,Attempt to Flee?,"Termites; PHPG 0.1 ppm, cell continues 'Then went dormant'","Yes,"
same,Percent Killed,"Termites; PHPG 0.1 ppm, exposure 24 hours",100%
same,Observations,"Termites; very low exposure (PHPG 0.1 ppm), sought shelter",went dormant. Larger
same,Attempt to Flee?,Wolf Spiders,Yes
same,Observations,Wolf Spiders,Very susceptible; and
same,Percent Killed,Wolf Spiders; exposure 1 hour,100%
same,Percent Killed,"Crickets; exposure 21 hours, garden house",100%
same,Attempt to Flee?,Crickets; tried to exit through HVAC vents,Yes
same,Attempt to Flee?,House Flies,Yes
same,Observations: final outcome,House Flies,All died within day
same,Observations: first deaths within,House Flies,one hour
same,Percent Killed,House Flies; exposure 24 hours,100%
same,Percent Killed,"Lice and nits; Lice and nits, PHPG 0.2 ppm, exposure 2 days",100%
same,Observations: bedding and other exposed items,"Lice and nits; Lice and nits, PHPG 0.2 ppm, within two days",items fully treated within two
same,Elimination of all signs of lice,"Lice and nits; child subject, from initiation of PHPG treatment",lice free within two days
same,Attempt to Flee?,Mosquitoes,Yes
same,Percent Killed,Mosquitoes; exposure 2 hours,100%
same,Attempt to Flee?,Stink Bugs,Yes
same,Percent Killed,Stink Bugs; exposure 24 hours,100%
same,Observations: unhatched yellow jackets in the nest,"Yellow Jackets and Nest; 1 day, nest was hatching",jackets in the nest died.
same,Percent Killed,"Yellow Jackets and Nest; Yellow Jackets and Nest, exposure 1 day",100%
same,Attempt to Flee?,Yellow Jackets and Nest; Yellow Jackets,Yes
same,Live insects observed,[1]; PHPG 0.4 ppm,No live insects were observed
same,Number of arthropods confirmed dead,"[1]; two PHPG generating devices, PHPG 0.4 ppm at 27 hours",109

# Reference: US12250948B2, “Methods for the control of arthropods using near-ideal gas phase hydrogen peroxide” (Synexis LLC, priority 2013, dated 2025)
